Measurements: ChEMBL document CHEMBL1201862, “PubChem BioAssay data set” (2004)
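Five compound concentrations were applied to cells in 96-well plates for 48 hours; endpoints were derived by simple linear interpolation of the resulting dose-response curve. Abbreviation: GI50, concentration required for 50% inhibition of growth.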 Activity calls are given as the source filed them. Rule as the data show it: active = GI50 up to about 1.1 µM and inactive = higher.

Experiments:
Experiment in all cases: NCI tumour cell line growth inhibition, 48 h
HOP-92 = system: HOP-92
ACHN = system: ACHN
SN12C = system: SN12C
CAKI-1 = system: CAKI-1
KM12 = system: KM12
SW-620 = system: SW-620
M14 = system: M14
UO-31 = system: UO-31
LOX IMVI = system: LOX IMVI
UACC-62 = system: UACC-62
DU-145 = system: DU-145
SNB-19 = system: SNB-19
NCI-H460 = system: NCI-H460
Malme-3M = system: Malme-3M
COLO 205 = system: COLO 205
SF-268 = system: SF-268
MDA-MB-231 = system: MDA-MB-231
OVCAR-4 = system: OVCAR-4
SK-OV-3 = system: SK-OV-3
CCRF-CEM = system: CCRF-CEM

Measured: GI50

COc1cccc2[nH]c(-c3ccccn3)nc12
inactive: HOP-92 > 100 µM | ACHN 56.2 µM | SN12C > 100 µM | CAKI-1 77.6 µM | KM12 > 100 µM | SW-620 > 100 µM | M14 > 100 µM | UO-31 44.8 µM | LOX IMVI > 100 µM | UACC-62 > 100 µM | DU-145 > 100 µM | SNB-19 > 100 µM | NCI-H460 86.7 µM | Malme-3M > 100 µM | COLO 205 > 100 µM | SF-268 72.4 µM | MDA-MB-231 > 100 µM | OVCAR-4 > 100 µM | SK-OV-3 > 100 µM

CC(=O)n1c(COS(C)(=O)=O)nc2ccccc21
inactive: HOP-92 > 100 µM | ACHN > 100 µM | SN12C > 100 µM | CAKI-1 > 100 µM | KM12 > 100 µM | SW-620 > 100 µM | M14 > 100 µM | UO-31 > 100 µM | LOX IMVI > 100 µM | UACC-62 > 100 µM | DU-145 > 100 µM | SNB-19 > 100 µM | NCI-H460 > 100 µM | Malme-3M > 100 µM | COLO 205 > 100 µM | SF-268 > 100 µM | MDA-MB-231 > 100 µM | OVCAR-4 > 100 µM

CC(C)OC(=O)C1=C2c3ncccc3C(=O)N2[C@@H](Cl)[C@@H](Cl)[C@@H]1Cl
inactive: HOP-92 > 100 µM | ACHN > 100 µM | SN12C 21.2 µM | CAKI-1 > 100 µM | KM12 > 100 µM | SW-620 34.9 µM | M14 > 100 µM | UO-31 > 100 µM | LOX IMVI > 100 µM | UACC-62 > 100 µM | DU-145 > 100 µM | SNB-19 > 100 µM | NCI-H460 > 100 µM | Malme-3M > 100 µM | COLO 205 > 100 µM | SF-268 82.2 µM | MDA-MB-231 > 100 µM | OVCAR-4 > 100 µM

C=CC(C)(O)/C=C/C=C(\C)C(CC1OC1(C)C)OC(=O)/C(C)=C\C (stereo not drawn)
inactive: HOP-92 > 100 µM | ACHN > 100 µM | SN12C > 100 µM | CAKI-1 > 100 µM | KM12 > 100 µM | SW-620 > 100 µM | M14 > 100 µM | UO-31 > 100 µM | LOX IMVI > 100 µM | UACC-62 > 100 µM | DU-145 > 100 µM | SNB-19 > 100 µM | NCI-H460 > 100 µM | Malme-3M > 100 µM | COLO 205 > 100 µM | SF-268 > 100 µM | MDA-MB-231 > 100 µM | OVCAR-4 > 100 µM | SK-OV-3 > 100 µM

O=c1c(Cl)c(Cl)c(=O)c2sc3cc(Cl)ccc3[nH]c1=2
inactive: HOP-92 16.7 µM | ACHN 53.1 µM | CAKI-1 > 100 µM | KM12 > 100 µM | SW-620 20.3 µM | M14 40.5 µM | UO-31 18.2 µM | UACC-62 23.4 µM | DU-145 > 100 µM | SNB-19 78.9 µM | NCI-H460 > 100 µM | Malme-3M 40.1 µM | COLO 205 90.4 µM | SF-268 38.6 µM | MDA-MB-231 2.04 µM | OVCAR-4 5.66 µM | SK-OV-3 > 100 µM

O=[N+]([O-])c1cn[n+]([O-])c2ccccc12
active: DU-145 1.05 µM
inactive: HOP-92 12.7 µM | ACHN 1.13 µM | SN12C 8.83 µM | CAKI-1 2.56 µM | KM12 5.36 µM | SW-620 1.98 µM | M14 2.87 µM | LOX IMVI 6.67 µM | CCRF-CEM 2.74 µM | SNB-19 11.5 µM | NCI-H460 4.61 µM | Malme-3M 15.4 µM | COLO 205 13.2 µM | SF-268 4.59 µM | MDA-MB-231 13.2 µM | SK-OV-3 13.2 µM

COc1ccc(N2C(=O)c3cccnc3S2(=O)=O)cc1
inactive: HOP-92 > 100 µM | ACHN > 100 µM | SN12C > 100 µM | CAKI-1 > 100 µM | KM12 > 100 µM | SW-620 > 100 µM | M14 > 100 µM | UO-31 > 100 µM | UACC-62 > 100 µM | CCRF-CEM > 100 µM | DU-145 > 100 µM | SNB-19 > 100 µM | NCI-H460 > 100 µM | Malme-3M > 100 µM | COLO 205 > 100 µM | SF-268 > 100 µM | MDA-MB-231 > 100 µM | OVCAR-4 > 100 µM | SK-OV-3 > 100 µM

O=C(O)c1ccc([N+](=O)[O-])c2cc3cnccc3nc12
inactive: HOP-92 30.1 µM | SN12C 16.3 µM | CAKI-1 > 10 µM | KM12 22.4 µM | M14 17.8 µM | UO-31 23.3 µM | UACC-62 12.4 µM | CCRF-CEM 2.31 µM | DU-145 33 µM | SNB-19 > 10 µM | NCI-H460 38.2 µM | Malme-3M 15.2 µM | COLO 205 21.5 µM | MDA-MB-231 19.4 µM | SK-OV-3 56.9 µM

Cc1cc(C)c2nc3c(c(C(O)C4CCCCN4)c2c1)CC/C3=C\c1ccc(Cl)cc1 (stereo not drawn)
inactive: HOP-92 > 100 µM | ACHN 78.3 µM | SN12C 38.1 µM | CAKI-1 94.6 µM | KM12 64.3 µM | SW-620 55.3 µM | M14 75.9 µM | UACC-62 65 µM | CCRF-CEM 25.4 µM | DU-145 81.1 µM | SNB-19 > 100 µM | NCI-H460 32.6 µM | Malme-3M > 100 µM | COLO 205 41 µM | SF-268 > 100 µM | MDA-MB-231 73.3 µM | OVCAR-4 58.9 µM | SK-OV-3 74.3 µM

N=C(N)N/N=C/c1nc2sccn2c1[N+](=O)[O-]
inactive: HOP-92 68.9 µM | ACHN 60.3 µM | SN12C 37.5 µM | CAKI-1 > 100 µM | KM12 16.6 µM | SW-620 29.4 µM | M14 22.6 µM | UO-31 65.3 µM | LOX IMVI 21.4 µM | UACC-62 30.9 µM | DU-145 22.3 µM | SNB-19 35.2 µM | NCI-H460 18.5 µM | Malme-3M 13.3 µM | COLO 205 16.2 µM | SF-268 33.3 µM | MDA-MB-231 26.2 µM | OVCAR-4 13.7 µM | SK-OV-3 52.5 µM

C=C[C@H]1CC[C@H]2[C@@H]3CC=C4C[C@@H](OC5OCC(O)C(O)C5O)CC[C@]4(C)[C@H]3CC[C@]12C (stereo partly drawn)
inactive: HOP-92 1.97 µM | ACHN 2.83 µM | SN12C 15.7 µM | CAKI-1 6.62 µM | KM12 12.9 µM | SW-620 17.7 µM | M14 16.1 µM | UO-31 13.3 µM | LOX IMVI 10.8 µM | UACC-62 15.5 µM | CCRF-CEM 24.8 µM | DU-145 34.1 µM | SNB-19 25.7 µM | NCI-H460 13.1 µM | COLO 205 21.7 µM | SF-268 13.8 µM | MDA-MB-231 11.4 µM | SK-OV-3 12.9 µM

CC(=O)n1[nH]c(=O)n(-c2ccc(Cl)cc2)c1=O
inactive: ACHN > 100 µM | SN12C > 100 µM | CAKI-1 > 100 µM | KM12 > 100 µM | SW-620 > 100 µM | M14 > 100 µM | UO-31 > 100 µM | LOX IMVI > 100 µM | UACC-62 > 100 µM | CCRF-CEM > 100 µM | DU-145 > 100 µM | SNB-19 > 100 µM | NCI-H460 > 100 µM | Malme-3M 45.9 µM | COLO 205 > 100 µM | SF-268 > 100 µM | MDA-MB-231 > 100 µM | OVCAR-4 > 100 µM | SK-OV-3 > 100 µM

CCC1OC2C(CC=C(C)C)=C3OC(C)(O)C(C)(CC)C(OC(=O)c4ccccc4)C3=C3OC(=O)C=C1C32 (stereo not drawn)
inactive: HOP-92 70 µM | ACHN 39.6 µM | SN12C 27.7 µM | CAKI-1 36.6 µM | KM12 39.9 µM | SW-620 57.1 µM | M14 45.2 µM | UO-31 37.2 µM | LOX IMVI 18.4 µM | UACC-62 30.5 µM | CCRF-CEM 59.2 µM | DU-145 32.7 µM | SNB-19 23.8 µM | NCI-H460 46.9 µM | Malme-3M 39 µM | COLO 205 18.1 µM | SF-268 36 µM | MDA-MB-231 22.4 µM | SK-OV-3 56.4 µM

CCOP1(=O)OCC2OC(n3cnc4c(N)ncnc43)C(O)C2O1.c1ccccc1 (stereo not drawn)
inactive: HOP-92 > 100 µM | ACHN > 100 µM | SN12C > 100 µM | CAKI-1 > 100 µM | KM12 > 100 µM | SW-620 > 100 µM | M14 > 100 µM | UO-31 > 100 µM | LOX IMVI > 100 µM | UACC-62 > 100 µM | DU-145 > 100 µM | SNB-19 > 100 µM | NCI-H460 > 100 µM | Malme-3M > 100 µM | COLO 205 > 100 µM | SF-268 > 100 µM | MDA-MB-231 > 100 µM | OVCAR-4 > 100 µM | SK-OV-3 > 100 µM

N=C1CCCC1C(=S)SCCC(N)=O (stereo not drawn)
inactive: HOP-92 > 100 µM | ACHN > 100 µM | SN12C > 100 µM | CAKI-1 > 100 µM | KM12 > 100 µM | SW-620 > 100 µM | M14 > 100 µM | UO-31 > 100 µM | UACC-62 > 100 µM | CCRF-CEM > 100 µM | DU-145 > 100 µM | SNB-19 > 100 µM | NCI-H460 > 100 µM | Malme-3M > 100 µM | COLO 205 > 100 µM | SF-268 > 100 µM | MDA-MB-231 > 100 µM | OVCAR-4 > 100 µM | SK-OV-3 > 100 µM
